For the experiment, the system named is Prostate-specific antigen (PSA) production in LNCaP cells. Briefly: PSA Assay (inhibition of PSA production in prostate cancer cells, ELISA). The format is cell-based, human. Conditions: Homo sapiens, LNCaP, 72 h, read-out: LNCAP IC50 (uM), inhibition of PSA production, LNCaP cells, R1881 1 ng/ml, three days, seven point assay. Here is the method:
PSA Assay (Inhibition Test of the Compound of the Present Invention on Prostate-Specific Antigen (PSA) Production in Various Prostate Cancer Cells).
Androgen dependent LNCaP cells were purchased from the American Type Culture Collection (ATCC, Manassas, Va.). These cells were grown in RPMI 1640 medium supplemented with 10% fetal bovine serum (FBS), 100 U/mL penicillin, 100 μg/mL streptomycin, and 0.25 μg/mL amphotericin B. The cells were maintained at 37° C. and 5% CO2. LNCaP cells between passage 20 and 35 were used for experiments. LNCaP is a hormone sensitive cell line. For the PSA assay, human prostate cancer cells LNCaP were seeded in a 96-well plate at a concentration of 5000 cells/100 μl/well. On the following day, Methyltrienolone (R1881, AR agonist) (final concentration 1 ng/ml), test compounds or bicalutamide (Casodex®, AstraZeneca) (final concentration 0.005 to 20 μM) were added. Three days after the addition, the concentration of PSA in the supernatant of the culture solution was measured by ELISA. ELISAs for human PSA in culture medium were performed using the ultra-sensitive assay procedure and reagents in the Active™ PSA assay kit (Diagnostic Systems Laboratories Inc., Webster, Tex.). Culture medium and standards (200 μl/well) were incubated in antibody-coated plates for 2 h at room temperature on a Titer plate shaker at 500-600 rpm. Wells were then washed five times. The HRP conjugate was diluted 1:20 with assay buffer, and 100 μl was added to all wells. The plates were incubated for 30 min at room temperature on the shaker and washed as before, and 100 μl TMB (3,3′,5,5′-tetramethylbenzidine, 0.4 g/l) was added. The plates were incubated for 10 min on the shaker, and the reaction was terminated with 100 μl stop solution. The plates were read using a plate reader at 450 nm with a 650 nm reference filter. PSA levels were normalized for differences in growth of LNCaP cells following various treatments as determined by the MTS assay. IC50 of PSA was calculated based on a seven point assay (concentrations of tested compound) and expressed as micromolar (uM).
(In general: In an ELISA, binding on a coated surface is turned into a signal by an enzyme label.)
`CNC(=O)COCc1ccc(N2C(=S)N(c3ccc(C#N)c(C(F)(F)F)c3F)C(=O)C2(C)C)cc1` [Example 17, 2-((4-(3-(4-cyano-2-fluoro-3-(trifluoromethyl)phenyl)-5,5-dimethyl-4-oxo-2-thioxoimidazolidin-1-yl)benzyl)oxy)-N-methylacetamide]: the IC50 came out at 0.53 µM.
The figure for `CC1(C)C(=O)N(c2ccc(C#N)c(C(F)(F)F)c2F)C(=S)N1c1ccc(CCCc2ncc[nH]2)nc1` [Example 66, 4-(3-(6-(3-(1H-imidazol-2-yl)propyl)pyridin-3-yl)-4,4-dimethyl-5-oxo-2-thioxoimidazolidin-1-yl)-3-fluoro-2-(trifluoromethyl)benzonitrile] is 1.27 µM.
Under `CC1(C)C(=O)N(c2ccc(C#N)c(C(F)(F)F)c2F)C(=S)N1c1ccc(CCCC(=O)N2CCOCC2)nc1` [Example 55, 4-{4,4-Dimethyl-3-[6-(4-morpholin-4-yl-4-oxo-butyl)-pyridin-3-yl]-5-oxo-2-thioxo-imidazolidin-1-yl}-3-fluoro-2-trifluoromethyl-benzonitrile] stands 1.2 µM.
In the case of `CC1(C)C(=O)N(c2ccc(C#N)c(C(F)(F)F)c2F)C(=S)N1c1ccc(CCCC#N)cc1` [Example 40, 4-(3-(4-(3-cyanopropyl)phenyl)-4,4-dimethyl-5-oxo-2-thioxoimidazolidin-1-yl)-3-fluoro-2-(trifluoromethyl)benzonitrile], the IC50 stood at 0.3 µM.
Under `COc1c(C#N)ccc(N2C(=O)C(C)(C)N(c3ccc(CCCc4ncc[nH]4)cc3)C2=S)c1F` [Example 21, 3-Fluoro-4-(3-{4-[3-(1H-imidazol-2-yl)-propyl]-phenyl}-4,4-dimethyl-5-oxo-2-thioxo-imidazolidin-1-yl)-2-methoxy-benzonitrile] stands 1.83 µM; under `CC1(C)C(=O)N(c2ccc(C#N)c(C(F)(F)F)c2)C(=S)N1c1ccc(CCCC(=O)N2CC(O)C2)c(F)c1` [Example 48, 4-(3-{3-Fluoro-4-[4-(3-hydroxy-azetidin-1-yl)-4-oxo-butyl]-phenyl}-4,4-dimethyl-5-oxo-2-thioxo-imidazolidin-1-yl)-2-trifluoromethyl-benzonitrile], 1.04 µM; under `N#CCCCc1ccc(N2C(=S)N(c3ccc(C#N)c(Cl)c3F)C(=O)C23CCC3)cc1F` [Example 33, 2-chloro-4-(5-(4-(3-cyanopropyl)-3-fluorophenyl)-8-oxo-6-thioxo-5,7-diazaspiro[3.4]octan-7-yl)-3-fluorobenzonitrile], 0.64 µM.
The figure for `CNC(=O)C(C)(C)CCc1ccc(N2C(=S)N(c3ccc(C#N)c(OC)c3F)C(=O)C23CCC3)cc1` [Example 26, 4-{4-[7-(4-Cyano-2-fluoro-3-methoxy-phenyl)-8-oxo-6-thioxo-5,7-diaza-spiro[3.4]oct-5-yl]-phenyl}-2,2,N-trimethyl-butyramide] is 0.97 µM; for `CC1(C)C(=O)N(c2ccc(C#N)c(Cl)c2F)C(=S)N1c1ccc(CCCC#N)nc1` [Example 37, 2-chloro-4-(3-(6-(3-cyanopropyl)pyridin-3-yl)-4,4-dimethyl-5-oxo-2-thioxoimidazolidin-1-yl)-3-fluorobenzonitrile] it is 0.65 µM.
The figure for `CN(C)C(=O)CCCc1ccc(N2C(=S)N(c3ccc(C#N)c(Cl)c3F)C(=O)C2(C)C)cc1` [Example 14, 4-{4-[3-(3-Chloro-4-cyano-2-fluoro-phenyl)-5,5-dimethyl-4-oxo-2-thioxo-imidazolidin-1-yl]-phenyl}-N,N-dimethyl-butyramide] is 0.69 µM.
With `CNC(=O)C(C)(C)CCc1ccc(N2C(=S)N(c3ccc(C#N)c(Cl)c3F)C(=O)C2(C)C)cc1` [Example 24, 4-{4-[3-(3-Chloro-4-cyano-2-fluoro-phenyl)-5,5-dimethyl-4-oxo-2-thioxo-imidazolidin-1-yl]-phenyl}-2,2,N-trimethyl-butyramide], the IC50 worked out at 1.09 µM.
For `CNC(=O)C(C)(C)CCc1ccc(N2C(=S)N(c3ccc(C#N)c(C(F)(F)F)c3F)C(=O)C2(C)C)cc1` [Example 22, 4-{4-[3-(4-Cyano-2-fluoro-3-trifluoromethyl-phenyl)-5,5-dimethyl-4-oxo-2-thioxo-imidazolidin-1-yl]-phenyl}-2,2,N-trimethyl-butyramide], the IC50 is 0.6 µM.
Take `CN1CCN(C(=O)CCCc2ccc(N3C(=S)N(c4ccc(C#N)c(C(F)(F)F)c4F)C(=O)C3(C)C)cc2F)CC1` [Example 53, 3-Fluoro-4-(3-{3-fluoro-4-[4-(4-methyl-piperazin-1-yl)-4-oxo-butyl]-phenyl}-4,4-dimethyl-5-oxo-2-thioxo-imidazolidin-1-yl)-2-trifluoromethyl-benzonitrile]: the IC50 came to 0.41 µM.
The figure for `N#CCCCc1ccc(N2C(=S)N(c3ccc(C#N)c(C(F)(F)F)c3F)C(=O)C23CCC3)cc1F` [Example 31, 4-(5-(4-(3-cyanopropyl)-3-fluorophenyl)-8-oxo-6-thioxo-5,7-diazaspiro[3.4]octan-7-yl)-3-fluoro-2-(trifluoromethyl)benzonitrile] is 0.53 µM.
The figure for `CNC(=O)CCCc1ccc(N2C(=S)N(c3ccc(C#N)c(Cl)c3F)C(=O)C2(C)C)cc1` [Example 7, 4-(4-(3-(3-chloro-4-cyano-2-fluorophenyl)-5,5-dimethyl-4-oxo-2-thioxoimidazolidin-1-yl)phenyl)-N-methylbutanamide] is 0.65 µM; for `N#Cc1ccc(N2C(=O)C3(CCC3)N(c3ccc(CCCc4nccs4)nc3)C2=S)c(F)c1C(F)(F)F` [Example 68, 3-fluoro-4-(8-oxo-5-(6-(3-(thiazol-2-yl)propyl)pyridin-3-yl)-6-thioxo-5,7-diazaspiro[3.4]octan-7-yl)-2-(trifluoromethyl)benzonitrile] it is 0.61 µM.
The figure for `CNC(=O)CCCc1ccc(N2C(=S)N(c3ccc(C#N)c(Cl)c3F)C(=O)C23CCC3)cc1` [Example 11, 4-(4-(7-(3-chloro-4-cyano-2-fluorophenyl)-8-oxo-6-thioxo-5,7-diazaspiro[3.4]octan-5-yl)phenyl)-N-methylbutanamide] is 0.54 µM.
As for `N#CCCCc1ccc(N2C(=S)N(c3ccc(C#N)c(Cl)c3F)C(=O)C23CCC3)cc1` [Example 43, 2-chloro-4-(5-(4-(3-cyanopropyl)phenyl)-8-oxo-6-thioxo-5,7-diazaspiro[3.4]octan-7-yl)-3-fluorobenzonitrile], the IC50 is 0.59 µM.
The figure for `CC1(C)C(=O)N(c2ccc(C#N)c(C(F)(F)F)c2F)C(=S)N1c1ccc(CCCc2nccs2)nc1` [Example 67, 4-(4,4-dimethyl-5-oxo-3-(6-(3-(thiazol-2-yl)propyl)pyridin-3-yl)-2-thioxoimidazolidin-1-yl)-3-fluoro-2-(trifluoromethyl)benzonitrile] is 0.27 µM; for `CNC(=O)C1(CCc2ccc(N3C(=S)N(c4ccc(C#N)c(C(F)(F)F)c4F)C(=O)C3(C)C)cc2)CCC1` [Example 34, 1-(2-{4-[3-(4-Cyano-2-fluoro-3-trifluoromethyl-phenyl)-5,5-dimethyl-4-oxo-2-thioxo-imidazolidin-1-yl]-phenyl}-ethyl)-cyclobutanecarboxylic acid methylamide] it is 0.62 µM.
The figure for `CC1(C)C(=O)N(c2ccc(C#N)c(C(F)(F)F)c2)C(=S)N1c1ccc(CCCc2ncco2)nc1` [Example 64, 4-{4,4-Dimethyl-3-[6-(3-oxazol-2-yl-propyl)-pyridin-3-yl]-5-oxo-2-thioxo-imidazolidin-1-yl}-2-trifluoromethyl-benzonitrile] is 0.45 µM; for `CNC(=O)C(C)(C)CCc1ccc(N2C(=S)N(c3ccc(C#N)c(Cl)c3F)C(=O)C23CCC3)cc1` [Example 27, 4-{4-[7-(3-Chloro-4-cyano-2-fluoro-phenyl)-8-oxo-6-thioxo-5,7-diaza-spiro[3.4]oct-5-yl]-phenyl}-2,2,N-trimethyl-butyramide] it is 0.47 µM; for `COC(=O)CCCc1ccc(N2C(=S)N(c3ccc(C#N)c(C(F)(F)F)c3F)C(=O)C2(C)C)cc1` [Example 2, methyl 4-(4-(3-(4-cyano-2-fluoro-3-(trifluoromethyl)phenyl)-5,5-dimethyl-4-oxo-2-thioxoimidazolidin-1-yl)phenyl)butanoate] it is 1.45 µM.
The figure for `CC1(C)C(=O)N(c2ccc(C#N)c(C(F)(F)F)c2)C(=S)N1c1ccc(CCCC(=O)N2CCOCC2)nc1` [Example 56, 4-{4,4-Dimethyl-3-[6-(4-morpholin-4-yl-4-oxo-butyl)-pyridin-3-yl]-5-oxo-2-thioxo-imidazolidin-1-yl}-2-trifluoromethyl-benzonitrile] is 3.64 µM; for `CNC(=O)C(C)(C)CCc1ccc(N2C(=S)N(c3ccc(C#N)c(C(F)(F)F)c3F)C(=O)C23CCC3)cc1` [Example 25, 4-{4-[7-(4-Cyano-2-fluoro-3-trifluoromethyl-phenyl)-8-oxo-6-thioxo-5,7-diaza-spiro[3.4]oct-5-yl]-phenyl}-2,2,N-trimethyl-butyramide] it is 0.82 µM.

For the origin of these results see patent US9216957B2, “Androgen receptor antagonists and uses thereof” (SUZHOU KINTOR PHARMACEUTICALS, INC., priority 2011, dated 2015).
